Substitutions are numbered along the chain they refer to. pIC50: −log10 of the molar value. Calls of active or inactive are those of the source. The calls are words filed in the database; no cut-off is given here.
Assays:
Homo sapiens [1] = organism: Homo sapiens; assay: Ratio of IC50 for inhibition of CBR1 (unknown origin) inhibition of recombinant AKR1C3 (unknown origin)
[2] = target: T1, Carbonyl reductase [NADPH] 1 (Homo sapiens, UniProt P16152); assay: Inhibition of CBR1 (unknown origin)
T1 sequence (P16152 whole entry): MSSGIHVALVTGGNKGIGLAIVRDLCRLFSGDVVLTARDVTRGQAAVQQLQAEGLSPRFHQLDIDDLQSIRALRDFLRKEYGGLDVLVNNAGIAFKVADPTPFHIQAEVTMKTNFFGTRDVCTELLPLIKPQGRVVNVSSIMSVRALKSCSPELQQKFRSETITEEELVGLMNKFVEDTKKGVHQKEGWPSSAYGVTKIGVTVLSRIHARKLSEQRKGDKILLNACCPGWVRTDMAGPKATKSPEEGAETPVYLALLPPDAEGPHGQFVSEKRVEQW

[3] = target: T2, Aldo-keto reductase family 1 member C2 (Homo sapiens, UniProt P52895); assay: Inhibition of recombinant AKR1C2 (unknown origin) assessed as reduction in S-tetralol-induced dehydrogenase activity by measuring NADPH level
T2 sequence (P52895 whole entry): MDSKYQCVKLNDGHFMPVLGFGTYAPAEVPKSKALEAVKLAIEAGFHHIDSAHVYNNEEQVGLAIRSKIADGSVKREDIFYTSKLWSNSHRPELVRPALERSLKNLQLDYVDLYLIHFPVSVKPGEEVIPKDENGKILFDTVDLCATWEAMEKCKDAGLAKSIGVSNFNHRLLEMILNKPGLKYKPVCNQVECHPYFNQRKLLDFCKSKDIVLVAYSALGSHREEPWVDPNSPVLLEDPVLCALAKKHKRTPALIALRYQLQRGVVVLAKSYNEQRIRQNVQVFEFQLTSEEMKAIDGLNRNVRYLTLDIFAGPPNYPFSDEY

[4] = target: T3, Aldo-keto reductase family 1 member C1 (Homo sapiens, UniProt Q04828); assay: Inhibition of recombinant AKR1C1 (unknown origin) assessed as reduction in S-tetralol-induced dehydrogenase activity by measuring NADPH level
T3 sequence (Q04828 whole entry): T2 sequence (P52895 whole entry) with V38T, H47R, V54L, S87C, M151V, H170R, L172Q

Homo sapiens [5] = organism: Homo sapiens; assay: Ratio of IC50 for inhibition of recombinant AKR1C4 (unknown origin) inhibition of recombinant AKR1C3 (unknown origin)
[6] = target: T4, Aldo-keto reductase family 1 member C4 (Homo sapiens, UniProt P17516); assay: Inhibition of recombinant AKR1C4 (unknown origin) assessed as reduction in S-tetralol-induced dehydrogenase activity by measuring NADPH level
T4 sequence (P17516 whole entry): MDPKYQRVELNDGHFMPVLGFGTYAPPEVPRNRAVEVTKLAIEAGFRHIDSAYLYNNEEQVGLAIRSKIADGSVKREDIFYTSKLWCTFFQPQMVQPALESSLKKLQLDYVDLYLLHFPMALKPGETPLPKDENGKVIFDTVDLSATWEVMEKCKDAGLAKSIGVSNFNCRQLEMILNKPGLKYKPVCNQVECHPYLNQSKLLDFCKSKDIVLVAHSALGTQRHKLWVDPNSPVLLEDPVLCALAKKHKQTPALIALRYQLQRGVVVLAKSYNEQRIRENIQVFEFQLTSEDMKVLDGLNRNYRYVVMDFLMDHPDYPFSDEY

Homo sapiens [7] = organism: Homo sapiens; assay: Ratio of IC50 for inhibition of recombinant AKR1C2 (unknown origin) inhibition of recombinant AKR1C3 (unknown origin)
Homo sapiens [8] = organism: Homo sapiens; assay: Ratio of IC50 for inhibition of recombinant AKR1C1 (unknown origin) inhibition of recombinant AKR1C3 (unknown origin)
[9] = target: T5, Aldo-keto reductase family 1 member C3 (Homo sapiens, UniProt P42330); assay: Inhibition of recombinant AKR1C3 (unknown origin) assessed as reduction in S-tetralol-induced dehydrogenase activity by measuring NADPH level
T5 sequence (P42330 whole entry): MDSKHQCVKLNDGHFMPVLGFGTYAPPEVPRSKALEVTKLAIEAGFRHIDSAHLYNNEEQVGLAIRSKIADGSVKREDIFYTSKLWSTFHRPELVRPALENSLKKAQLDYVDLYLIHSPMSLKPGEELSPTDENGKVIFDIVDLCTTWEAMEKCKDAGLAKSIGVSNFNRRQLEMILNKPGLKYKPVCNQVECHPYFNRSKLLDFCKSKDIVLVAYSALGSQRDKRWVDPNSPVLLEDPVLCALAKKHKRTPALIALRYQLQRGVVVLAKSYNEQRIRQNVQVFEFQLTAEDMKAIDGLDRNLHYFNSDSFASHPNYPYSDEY

[10] = target: T6, Androgen receptor (Homo sapiens) (UniProt P10275); assay: Agonistic activity at AR in human 22Rv1 cells assessed as effect on cell number at 1 nM by CCK8 assay; format: cell-based; settings: CWR22R
T6 sequence (whole entry): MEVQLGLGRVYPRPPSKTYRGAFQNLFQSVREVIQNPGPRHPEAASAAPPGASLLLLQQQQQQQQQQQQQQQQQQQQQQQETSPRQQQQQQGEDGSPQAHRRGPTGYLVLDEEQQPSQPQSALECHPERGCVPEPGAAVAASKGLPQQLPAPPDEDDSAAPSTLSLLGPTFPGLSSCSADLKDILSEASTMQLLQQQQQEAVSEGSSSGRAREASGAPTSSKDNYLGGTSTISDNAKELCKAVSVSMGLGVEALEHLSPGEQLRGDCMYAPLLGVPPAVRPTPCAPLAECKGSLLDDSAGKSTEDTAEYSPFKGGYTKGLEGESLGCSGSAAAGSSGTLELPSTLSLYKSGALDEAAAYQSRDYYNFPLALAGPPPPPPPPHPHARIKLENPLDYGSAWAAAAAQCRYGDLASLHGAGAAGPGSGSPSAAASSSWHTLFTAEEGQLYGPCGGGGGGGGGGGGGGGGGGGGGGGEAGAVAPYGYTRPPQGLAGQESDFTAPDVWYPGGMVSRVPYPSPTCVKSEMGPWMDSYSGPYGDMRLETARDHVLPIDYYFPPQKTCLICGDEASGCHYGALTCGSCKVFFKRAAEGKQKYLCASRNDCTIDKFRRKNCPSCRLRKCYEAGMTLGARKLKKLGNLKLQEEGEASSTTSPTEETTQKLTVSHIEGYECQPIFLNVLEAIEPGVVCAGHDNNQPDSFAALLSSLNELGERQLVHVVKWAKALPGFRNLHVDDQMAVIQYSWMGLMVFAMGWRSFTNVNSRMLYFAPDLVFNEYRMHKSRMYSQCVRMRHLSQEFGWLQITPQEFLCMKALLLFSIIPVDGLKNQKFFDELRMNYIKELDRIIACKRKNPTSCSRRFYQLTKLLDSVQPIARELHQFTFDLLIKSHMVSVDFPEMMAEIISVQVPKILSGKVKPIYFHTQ

Row | Structure (SMILES) | Ratio IC50 (Homo sapiens [1]) | pIC50 [2] | pIC50 [3] | pIC50 [4] | Ratio IC50 (Homo sapiens [5]) | pIC50 [6] | Ratio IC50 (Homo sapiens [7]) | Ratio IC50 (Homo sapiens [8]) | pIC50 [9] | Activity [10]
1 | Cc1ccc(NC(=O)c2cc3cccc(O)c3oc2=N)cc1 | 10 | 6.57 | < 5.00 | < 5.00 | > 370 | < 5.00 | > 370 | > 370 | 7.57 | inactive
2 | N=c1oc2c(O)cccc2cc1C(=O)Nc1ccc(F)cc1 | 18 | 6.36 | < 5.00 | 5.22 | > 400 | < 5.00 | > 400 | 240 | 7.60 | inactive
3 | CCc1cccc(NC(=O)c2cc3cccc(O)c3oc2=N)c1 | 7 | 6.60 | < 5.00 | < 5.00 | > 300 | < 5.00 | > 300 | > 300 | 7.47 | inactive

From ChEMBL document CHEMBL4619820, “Development of Novel AKR1C3 Inhibitors as New Potential Treatment for Castration-Resistant Prostate Cancer” (J Med Chem, 2020)
